According to ChEMBL document CHEMBL1126577, “Studies of the synthesis, immunology, and cytotoxicity of a cyclic octapeptide corresponding to TNF-alpha-(59-66)” (1993):
Bridge positions count the residues as written; N and C are the ends. Peptide text beside a SMILES is read from it.

Tests used:
Homo sapiens [1] = organism: Homo sapiens; experiment: Tested for induction of interleukin-1 production from human monocyte of 1x 10 e5 cells at 10 ug/mL; format: functional
Homo sapiens [2] = organism: Homo sapiens; experiment: Tested for induction of interleukin-1 production from human peripheral blood mononuclear cell (PBMC) of 2x10 e6 cells at 1 ug/mL; format: functional
HEp-2 [3] = experiment: Tested for cytotoxicity index against HEP-2 cell line by MTT method at 0.1 ug/mL concentration; format: functional, Homo sapiens
HeLa [4] = experiment: Tested for cytotoxicity index against HeLa cell line by MTT method at 1.0 ug/mL concentration; format: functional, Homo sapiens
HeLa [5] = experiment: Tested for cytotoxicity index against HeLa cell line by MTT method at 0.1 ug/mL concentration; format: functional, Homo sapiens
HEp-2 [6] = experiment: Tested for cytotoxicity index against HEP-2 cell line by MTT method at 1.0 ug/mL concentration; format: functional, Homo sapiens
Homo sapiens [7] = organism: Homo sapiens; experiment: Tested for induction of interleukin-1 from human peripheral blood mononuclear cell (PBMC) of 2x10 e6 cells at 1 ug/mL; format: functional

With `CC(C)C[C@@H]1NC(=O)[C@H](CCC(N)=O)NC(=O)[C@@H](N)CC(=O)NCCCC[C@@H](C(=O)NCC(=O)O)NC(=O)[C@H](CO)NC1=O` (H-DQLSKG-OH; lactam 1-5) the IL-1 production (Homo sapiens [1]) was 1047 pg/mL and the IL-1 production (Homo sapiens [2]) was 579 pg/mL.

Molecule `COc1cccc2c1C(=O)c1c(O)c3c(c(O)c1C2=O)C[C@@](O)(C(=O)CO)C[C@@H]3O[C@H]1C[C@H](N)[C@H](O)[C@H](C)O1` [DOXORUBICIN] has a Cytotoxicity index (HEp-2 [3]) of 39, a Cytotoxicity index (HeLa [4]) of 96.6 and a Cytotoxicity index (HeLa [5]) of 50.6. For the same molecule, the Cytotoxicity index (HEp-2 [6]) was 75.5.

With H-KGDRLS-OH [TNF-ALPHA] the IL-1 production (Homo sapiens [7]) was 741 pg/mL.
